The subject of one data set is HFD-fed MUP-uPA mice. The data set is described as follows: Casp2 inhibitor treatment of HFD-fed MUP-uPA mice (NASH model). Format: in vivo, mouse. The conditions noted are these: for circulating TG / circulating cholesterol: serum. The method, then:
FIGS. 6A-6G are pictorial and graphical diagrams showing that Casp2 inhibition ameliorates NASH. […] After 6 weeks of HFD feeding, MUP-uPA mice were treated with Ac-VDVAD (10 μg/g) for 6 weeks while kept on HFD. […] FFPE sections from livers of inhibitor or vehicle treated mice were evaluated for macrovesicular fat, ballooning hepatocytes, MDB and p62 aggregates, macrophages, collagen fibers and lipid droplets. Magnification bars: 100 μm. Images were quantitated as above and results are shown on the right as averages±SEM (Vehicle: n=6; Ac-VDVAD: n=5). […] Mean±SEM. […] Adipocyte size and density were determined as above. ATM (adipose tissue macrophages) were visualized by F4/80 staining and quantified as above.
Casp2^−/− mice were purchased from The Jackson Laboratories and crossed with either C57BL/6 or MUP-uPA mice (Sandgren et al., 1991; Weglarz et al., 2000) to generate Casp2^−/−/WT or Casp2^−/−/MUP-uPA mice, respectively. All mouse lines were either on a pure C57BL/6 genetic background or crossed into it for at least nine generations. Mice were fed with HFD (#S3282, Bio-serv) for a total of 12 weeks, starting at 8 weeks of age. Body weight increase and food consumption were monitored bi-weekly throughout the entire feeding period. Mice were starved for 3 hr before sacrifice and liver and adipose tissue were excised and weighed.
(§1) RNAs were extracted from liver or fat tissue of indicated mice or human biopsies using TRIZOL reagent according to manufacturer's instruction. cDNAs were synthesized from total RNAs using Super Script VILO cDNA Synthesis Kit (Thermo Fisher Scientific, MA) according to the supplier's instructions. The cDNAs were quantified by real-time PCR analysis using SYBR Green Master Mix (Bio-Rad, CA). Primer sequences that were used for human biopsies are as follows:
Liver and epidydimal fat were fixed in 4% paraformaldehyde for 48 hr and embedded in paraffin, sectioned, stained with hematoxylin and eosin (H&E) to evaluate gross morphology and ballooning degeneration and with Sirius Red to determine fibrosis. Prepared FFPE sections were subjected to incubation with antibodies specific to p62 and F4/80 to visualize formation of Mallory-Denk Bodies (MDB) and macrophage infiltration, respectively. For frozen-block preparation, liver tissue was embedded in Tissue-Tek OCT compound (Sakura Finetek), sectioned, and stained with Oil Red O to visualize TG accumulation. Stained areas were quantified using ImageJ software.
Liver lipids were extracted using chloroform/methanol (2:1 v/v) and plasma and liver TG and cholesterol were determined using Triglyceride Colorimetric Assay Kit (Cayman Chemical Company, MI) and Cholesterol Quantification Kit (Sigma-Aldrich, MO) according to manufacturer's instructions.
Morphological analysis of adipocytes was performed by using MRI adipocyte tools (Osman et al., 2013). Images were taken from FFPE epidydimal fat section by AXIO Imager A2 (Carl Zeiss, Germany) and subjected to MRI adipocyte software to obtain area of individual fat cell and number of adipocytes per HMF. Quantification and statistical significance were analyzed by Prism 7 software (GraphPad Prism, CA).
To examine whether Casp2 inhibition is of therapeutic value, Ac-VDVAD-CHO (C23H37N5O10), a cell permeable, Casp2 inhibitor (Talanian et al., 1997) was administrated to HFD-fed MUP-uPA mice. HFD feeding was initiated at eight weeks of age, and six weeks later the mice were given the Casp2 inhibitor on alternate days by intraperitoneal (i.p.) injection (FIG. 6A). After a 6-week treatment regimen, the mice were sacrificed and their liver and adipose tissue were examined. […] Fibrosis was also attenuated. qRT-PCR analysis confirmed that expression of inflammatory cytokines and markers as well as fibrosis-related genes was reduced in response to Casp2 inhibition (FIG. 6C). […]

The next data set deals with Casp2. Briefly: Tunicamycin (ER stress inducer) administration to NC-fed BL6 mice, liver Casp2 expression. Format: in vivo, mouse. The conditions noted are these: non-transgenic 3-month-old NC-fed BL6 mice; tunicamycin 1.25 mg/kg i.p. As for the experimental part:
FIGS. 12A-12I are pictorial and graphical diagrams showing elevated Casp2 expression in ER-stressed mice and human NASH. FIG. 12A the results from immunoblot (IB) analysis of whole cell lysates (WCL) from 5-week-old WT and MUP-uPA livers (left) and WCL of livers from 3-month-old WT mice that were i.p. injected with dextrose or tunicamycin (1.25 mg/kg). Results are mean±SEM (dextrose: n=4; tunicamycin: n=5). P: precursor, C: cleaved. […] Results are mean±SEM (WT: n=5; MUP: n=9). […] Casp4 and Casp12 were examined in liver lysates of 5-week-old mice. […] Staining intensity was quantitated using ImageJ as described in FIG. 1.
as §1
ER stress in MUP-uPA liver peaks in 5- to 6-week-old mice and then declines due to reduced uPA expression in newly regenerated hepatocytes (Nakagawa et al., 2014; Sandgren et al., 1991). […]

The subject of another data set is MUP-uPA mice. The conditions noted are these: HFD-fed MUP-uPA mice; cited from earlier work.
Data set [1] deals with human caspases (including caspase-2). The conditions noted are these: cited from earlier work.
In data set [2] the target is T1, Flag-tagged SREBP2, Q12772.
T1 chain: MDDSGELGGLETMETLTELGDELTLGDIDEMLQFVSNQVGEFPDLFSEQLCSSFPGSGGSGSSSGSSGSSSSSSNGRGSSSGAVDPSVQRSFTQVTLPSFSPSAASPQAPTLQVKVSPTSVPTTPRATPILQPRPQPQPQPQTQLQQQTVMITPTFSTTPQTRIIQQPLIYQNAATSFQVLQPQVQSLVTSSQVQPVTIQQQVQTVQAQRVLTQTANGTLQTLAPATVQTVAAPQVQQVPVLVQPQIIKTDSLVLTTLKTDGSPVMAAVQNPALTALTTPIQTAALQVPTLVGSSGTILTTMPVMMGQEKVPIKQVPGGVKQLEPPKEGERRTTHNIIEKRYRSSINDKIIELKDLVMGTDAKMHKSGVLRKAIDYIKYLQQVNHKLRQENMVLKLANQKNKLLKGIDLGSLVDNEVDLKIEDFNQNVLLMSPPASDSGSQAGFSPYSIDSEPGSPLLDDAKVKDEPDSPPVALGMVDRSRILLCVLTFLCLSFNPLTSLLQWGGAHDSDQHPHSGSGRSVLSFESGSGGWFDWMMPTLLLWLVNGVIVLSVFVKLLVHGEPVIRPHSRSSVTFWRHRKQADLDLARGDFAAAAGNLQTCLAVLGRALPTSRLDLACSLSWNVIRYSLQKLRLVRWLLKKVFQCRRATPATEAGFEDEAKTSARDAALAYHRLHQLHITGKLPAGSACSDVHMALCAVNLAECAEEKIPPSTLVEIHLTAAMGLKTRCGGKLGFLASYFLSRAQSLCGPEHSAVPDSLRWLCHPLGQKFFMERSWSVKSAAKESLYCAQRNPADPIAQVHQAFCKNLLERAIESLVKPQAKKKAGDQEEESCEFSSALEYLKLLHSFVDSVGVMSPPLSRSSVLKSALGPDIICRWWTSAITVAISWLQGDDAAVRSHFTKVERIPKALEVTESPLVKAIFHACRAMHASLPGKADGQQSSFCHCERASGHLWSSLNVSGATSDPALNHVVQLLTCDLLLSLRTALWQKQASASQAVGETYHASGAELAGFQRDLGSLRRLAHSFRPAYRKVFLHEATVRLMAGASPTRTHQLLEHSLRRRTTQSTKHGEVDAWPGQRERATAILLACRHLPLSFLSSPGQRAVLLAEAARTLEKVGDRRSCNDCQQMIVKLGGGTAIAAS

Setting [3] is: HFD-fed MUP-uPA mice, 10 μg/g i.p. every other day for 6 weeks.
[4] abbreviates: HFD-fed MUP-uPA mice, 10 μg/g i.p. every other day for 6 weeks, liver.
[5] abbreviates: HFD-fed MUP-uPA mice, 10 μg/g i.p. on alternate days for 6 weeks.
[6] abbreviates: HFD-fed MUP-uPA mice, 10 μg/g i.p. on alternate days for 6 weeks, liver sections.
Where [7] appears, read: liver WCL, IB, HFD-fed MUP-uPA mice, 10 μg/g i.p. on alternate days for 6 weeks.

For z-VDVAD-fmk, in the data set with HFD-fed MUP-uPA mice (setting [3]), the “ATM (adipose tissue macrophage) accumulation / infiltration into epidydimal fat” value was “reduced”, the “UCP1 expression in BAT” value is reported as “elevating”, the “inflammatory infiltration in livers” value is “decreased” and the “liver TG” value is listed as “significantly prevented”. Besides, in the data set on HFD-fed MUP-uPA mice (setting [3]), the liver fibrosis result is reported as “dramatically reduced”, the “circulating TG” value is listed as “decreased” and the circulating cholesterol result is “decreased”. In addition, the “MDB (Mallory-Denk body) formation” value in the data set with HFD-fed MUP-uPA mice (setting [4]) is “decreased”.
Take tunicamycin: the “Casp2 protein and RNA in liver” value with Casp2 is “induced”.
For `C[C@H](CCC(=O)NCCS(=O)(=O)O)[C@H]1CC[C@H]2[C@@H]3[C@@H](O)C[C@@H]4C[C@H](O)CC[C@]4(C)[C@H]3CC[C@]12C` [TUDCA, tauroursodeoxycholic acid], in the data set with MUP-uPA mice, the NASH development result is on record as “effectively inhibited”, the “activation of sterol response element binding proteins (SREBP)” value is recorded as “attenuate” and the lipid accumulation result is “inhibit”.
As to `O=C(O)CCCc1ccccc1` [PBA, phenyl butyric acid], in the data set with MUP-uPA mice, the NASH development entry was “effectively inhibited”, the “activation of sterol response element binding proteins (SREBP)” value is reported as “attenuate” and the lipid accumulation entry is on record as “inhibit”.
`C[C@H](NC(=O)C(=O)Nc1ccccc1C(C)(C)C)C(=O)N[C@@H](CC(=O)O)C(=O)COc1c(F)c(F)cc(F)c1F` [IDN-6556]: the “activity against human caspases” value in data set [1] (broad-spectrum (pan-caspase) inhibitor) is listed as “activity against all tested human caspases”. In data set [1] (selectivity), the “inhibition of other classes of proteases or other enzymes or receptors other than caspases” value is “no inhibition”.
For the molecule Ac-VDVAD-aldehyde, in the data set with HFD-fed MUP-uPA mice (setting [3]), the “ATM (adipose tissue macrophage) accumulation / infiltration into epidydimal fat” value is reported as “blocked”, the “UCP1 expression in BAT” value is recorded as “enhanced”, the “liver TG” value was “decreased” and the liver fibrosis entry is reported as “attenuated”. For the same molecule, in the data set on HFD-fed MUP-uPA mice (setting [3]), the “circulating TG” value is listed as “decreased” and the circulating cholesterol entry is reported as “decreased”. In addition, the “MDB (Mallory-Denk body) formation” value with HFD-fed MUP-uPA mice (setting [4]) was “prevented”. In the data set on HFD-fed MUP-uPA mice (setting [5]), the blood insulin result is given as “had no effect” and the body weight entry is “had no effect”. For the same molecule, the hepatic steatosis result with HFD-fed MUP-uPA mice (HFD-fed MUP-uPA mice, 10 μg/g i.p. on alternate days for 6 weeks after 6 weeks of HFD, liver sections) was “prevented”. The macrophage recruitment entry with HFD-fed MUP-uPA mice (HFD-fed MUP-uPA mice, 10 μg/g i.p. on alternate days for 6 weeks, liver) is recorded as “decreasing”. For the same molecule, in the data set on HFD-fed MUP-uPA mice (setting [6]), the ballooning degeneration result is “prevented” and the p62 accumulation result is listed as “prevented”. Moreover, the “SREBP1/2 activation in liver” value in the data set with HFD-fed MUP-uPA mice (IB of liver WCL and NE, HFD-fed MUP-uPA mice, 10 μg/g i.p. on alternate days for 6 weeks) is “attenuated”. The “energy expenditure, as suggested by AMPK activation in peripheral tissues, including liver and skeletal muscle” value with HFD-fed MUP-uPA mice (IB of liver and muscle extracts, HFD-fed MUP-uPA mice, 10 μg/g i.p. on alternate days for 6 weeks) was “increased”. For the same molecule, the “established NASH” value in the data set with HFD-fed MUP-uPA mice (MUP-uPA mice, 10 μg/g for 6 weeks after 6 weeks of HFD feeding, kept on HFD) is “ameliorates”. Besides, in the data set with HFD-fed MUP-uPA mice (epidydimal fat, HFD-fed MUP-uPA mice, 10 μg/g i.p. on alternate days for 6 weeks), the adipocyte enlargement result is listed as “blocked”. Further, in the data set with HFD-fed MUP-uPA mice (setting [7]), the “INSIG1 or 2 expression” value is “had no effect”, the IRS2 expression entry is given as “had no effect”, the StARD4 expression result was “reduced” and the mTORC1/p70S6K activation result was “had no effect”. The “expression of inflammatory cytokines and markers as well as fibrosis-related genes” value with HFD-fed MUP-uPA mice (qRT-PCR, HFD-fed MUP-uPA mice, 10 μg/g i.p. on alternate days for 6 weeks) is on record as “reduced”.

B1: Casp2-HA (mouse Casp2 with a C terminal HA epitope) (protein)
chain: MAAPSGRSQSSLHRKGLMAADRRSRILAVCGMHPDHQETLKKNRVVLAKQLLLSELLEHLLEKDIITLEMRELIQAKGGSFSQNVELLNLLPKRGPQAFDAFCEALRETRQGHLEDLLLTTLSDIQHVLPPLSCDYDTSLPFSVCESCPPHKQLRLSTDATEHSLDNGDGPPCLLVKPCTPEFYQAHYQLAYRLQSQPRGLALVLSNVHFTGEKDLEFRSGGDVDHTTLVTLFKLLGYNVHVLHDQTAQEMQEKLQNFAQLPAHRVTDSCVVALLSHGVEGGIYGVDGKLLQLQEVFRLFDNANCPSLQNKPKMFFIQACRGDETDRGVDQQDGKNHTQSPGCEESDAGKEELMKMRLPTRSDMICGYACLKGNAAMRNTKRGSWYIEALTQVFSERACDMHVADMLVKVNALIKEREGYAPGTEFHRCKEMSEYCSTLCQQLYLFPGYPPT
B1: in data set [2], the “SREBP activation/cleavage (immunoblot)” value was “co-transfection of Casp2 with SREBP2 into either SCAP-deficient (293^ΔSCAP) or WT HEK293 cells did not result in SREBP1/2 activation/cleavage, unless an SP expression vector was also included”.

The values are drawn from US20190351003A1, “METHODS FOR INHIBITING NONALCOHOLIC STEATOHEPATITIS, NONALCOHOLIC FATTY LIVER DISEASE, AND/OR DE NOVO LIPOGENESIS” (The Regents of the University of California, priority 2017, published 2019).
